# Measured values from US5882851A, “Cytochrome P-450 monooxygenases” (Novartis Finance Corporation, priority 1993, dated 1999).
# B1: cytochrome P-450TYR: sorghum cytochrome P-450 monooxygenase converting tyrosine to p-hydroxyphenylacetaldehyde oxime, SEQ ID NO: 2 (protein)
# chain: MATMEVEAAAATVLAAPLLSSSAILKLLLFVVTLSYLARALRRPRKSTTKCSSTTCASPPAGVGNPPLPPGPVPWPVVGNLPEMLLNKPAFRWIHQMMREMGTDIACVKLGGVHVVSITCPEIAREVLRKQDANFISRPLTFASETFSGGYRNAVLSPYGDQWKKMRRVLTSEIICPSRHAWLHDKRTDEADNLTRYVYNLATKAATGDVAVDVRHVARHYCGNVIRRLMFNRRYFGEPQADGGPGPMEVLHMDAVFTSLGLLYAFCVSDYLPWLRGLDLDGHEKIVKEANVAVNRLHDTVIDDRWRQWKSGERQEMEDFLDVLITLKDAQGNPLLTIEEVKAQSQDITFAAVDNPSNAVEWALAEMVNNPEVMAKAMEELDRVVGRERLVQESDIPKLNYVKACIREAFRLHPVAPFNVPHVALADTTIAGYRVPKGSHVILSRTGLGRNPRVWDEPLRFYPDRHLATAASDVALTENDLRFISFSTGRRGCIAASLGTAMSVMLFGRLLQGFTWSKPAGVEAVDLSESKSDTFMATPLVLHAEPRLPAHLYPSISI
# B2: cytochrome P-450TYR from Sorghum bicolor (L.) Moench (enzyme)
# chain: ATMEVEAAAATVLAAPLLSSSAILKLLLFVVTLSYLARALRRPRKSTTKCSSTTCASPPAGVGNPPLPPGPVPWPVVGNLPEMLLNKPAFRWIHQMMREMGTDIACVKLGGVHVVSITCPEIAREVLRKQDANFISRPLTFASETFSGGYRNAVLSPYGDQWKKMRRVLTSEIICPSRHAWLHDKRTDEADNLTRYVYNLATKAATGDVAVDVRHVARHYCGNVIRRLMFNRRYFGEPQADGGPGPMEVLHMDAVFTSLGLLYAFCVSDYLPWLRGLDLDGHEKIVKEANVAVNRLHDTVIDDRWRQWKSGERQEMEDFLDVLITLKDAQGNPLLTIEEVKAQSQDITFAAVDNPSNAVEWALAEMVNNPEVMAKAMEELDRVVGRERLVQESDIPKLNYVKACIREAFRLHPVAPFNVPHVALADTTIAGYRVPKGSHVILSRTGLGRNPRVWDEPLRFYPDRHLATAASDVALTENDLRFISFSTGRRGCIAASLGTAMSVMLFGRLLQGFTWSKPAGVEAVDLSESKSDTFMATPLVLHAEPRLPAHLYPSISI
# What was measured:
# cytochrome P450 = assay: Photoreversible carbon monoxide inhibition of oxime production in tropaeolum microsomes; type: biochemical, Tropaeolum majus; conditions: 60 min
# Description: The microsomal reaction mixture consists of 80 μl microsomes (10 mg protein per ml), 10 μl ^14 C-phenylalanine (0.5 μCi, 464 mCi/mmol, Amersham) or ^14 C-tyrosine (0.5 μCi, 450 mCi/mmol, Amersham) and 10 μl NADPH (75 mg/ml). The reaction mixtures are incubated for 1 hour at 37° C. At the end of the incubation period, the reaction mixtures are extracted with 1500 μl ethyl acetate. The ethyl acetate phase is evaporated to dryness, redissolved in a small volume and analyzed.
# The microsomal reaction mixtures are incubated using different experimental conditions. The reaction mixtures are analyzed by HPLC.
# [1] = target: T1, P-450TYR expressed in E. coli (Sorghum bicolor, UniProt Q43135); assay: Substrate binding spectra of P-450TYR expressed in E. coli
# T1 construct: in which the 35 N-terminal amino acids are replaced by the nine N-terminal amino acids from bovine 17α hydroxylase; nine N-terminal amino acids from bovine 17alpha-hydroxylase (replace the 35 N-terminal residues) (N); made in house; host or cells: E. coli JM109, vector pSP19g10L
# Excerpt: Cytochrome P-450TYR in the oxidized state has a strong absorption peak at 420 nm, representing the low spin state of the iron of the heme group. The binding of a ligand to the heme group shifts the absorption maximum by changing the spin state of the iron. Binding of tyrosine at the catalytic site of cytochrome P-450TYR induces a change of the spin state of the oxidized iron from low to high spin, and thereby changes the absorption maximum from 420 nm to 390 nm producing a type I spectrum (Jefcoate, Methods in Enzymology 52:258-279, 1978). The following experimental procedure is used to obtain the substrate binding spectrum: two identical cuvettes containing a buffered solution of the isolated cytochrome P-450 are prepared. The substrate of the enzyme is added to the sample cuvette whereas the same volume of buffer is added to the other cuvette. The difference spectrum is then recorded in an SLM-Aminco DW2c spectrophotometer. The absorption difference, A390-420, is proportional to the concentration of cytochrome P-450TYR with a bound substrate at its active site. If a saturating concentration of substrate is added to the sample cuvette, the absorption difference is proportional to the concentration of the substrate specific cytochrome P-450 in the cuvettes. The saturating concentration of the substrate is determined by titrating the cytochrome P-450 sample with increasing amounts of substrate and monitoring A390-420.
# A modified cytocrome P-450TYR, in which the 35 N-terminal amino acids are replaced by the nine N-terminal amino acids from bovine 17α hydroxylase is introduced into the expression vector pSP19g10L which can be obtained from Dr. Henry Barnes (La Jolla, Calif.). This plasmid contains the lac Z promoter fused with the known short leader sequence (g10L) of gene 10 from bacteriophage T7 (Olin et al, 1988). A construct containing the N-terminal amino acids from bovine 17α hydroxylase and a truncated form of the P-450TYR gene is designed using PCR mutagenesis: Oligonucleotide TYROL 1d (5'-CGGGATCCATATGGCTCTGTTATTAGCAGTTTTTCTGTCGTACCTGGCCCG-3'; SEQ ID NO 23) containing a 5' mutant cDNA sequence as well as a BamHI and NdeI restriction site is used together with oligonucleotide TYROL 3 comprising the sequence surrounding the unique BamHI restriction site downstream of the ATG start codon of the cDNA coding for P-450TYR to amplify a modified N-terminal sequence of P-450TYR. The amplification product is cut with NdeI and BamHI restriction enzymes. To introduce a HindIII site immediately downstream of the stop codon of the P-450TYR gene, oligonucleotides TYROL 2 and TYROL 4 are used in a polymerase chain reaction to obtain a C-terminal fragment of the P-450TYR gene comprising a HindIII restriction site immediately downstream of the stop codon. The amplification product is cut with PstI and HindIII restriction enzymes. The complete expression plasmid is constructed by simultaneous ligation of the N-terminal NdeI/BamHI fragment, the BamHI/PstI fragment of the P-450TYR gene and the C-terminal PstI/HindIII fragment into NdeI/HindIII cleaved pSP19g10L vector DNA. The expression vector obtained is transformed into E. coli strain JM109. Transformed E. coli produce 300 nmol to 500 nmol cytochrome P-450TYR per liter cell culture upon growth at 28° C. in the presence of 1 mM isopropyl-β-D-thiogalactopyranoside and at 125 rpm. Expression levels as high as 900 nmol per liter, equivalent to 55 mg P-450TYR per liter, have been obtained. […]
# [2] = target: T2, E. coli-expressed cytochrome P-450TYR (Sorghum bicolor, UniProt Q43135); assay: Reconstitution with E. coli-expressed cytochrome P-450TYR and sorghum NADPH cytochrome P450 reductase; type: biochemical; conditions: phenylalanine as substrate
# T2 construct: in which the 35 N-terminal amino acids are replaced by the nine N-terminal amino acids from bovine 17α hydroxylase; nine N-terminal amino acids from bovine 17alpha-hydroxylase (replace the 35 N-terminal residues) (N); made in house; host or cells: E. coli JM109, vector pSP19g10L
# Description: (§1) 10 μl of the lipid suspension is mixed in a glass vial with 50 μl of the cytochrome P-450TYR (0-1.5 pmol) solution. […] The reaction mixture is subsequently incubated for 1 hour at 30° C. At the end of the incubation period the reaction is stopped by transferring the glass vials onto ice. Radioactively labelled intermediates formed are extracted into 50 μl ehtyl acetate, applied to a silica coated TLC plate and developed using an ethyl acetate/toluene (1:5 v/v) mixture as mobile phase. The resultant product, p-hydroxyphenylacetaldehyde oxime is visualized by autoradiography of the TLC plate. Alternatively, the intermediates are analyzed by reverse-phase HPLC coupled to a Berthold radioactiviy monitor. […] Control samples may be made by omitting either cytochrome P-450 oxidoreductase or NADPH.
# (§2) Reconstitution experiments with E. cole-expressed cytochrome P-450TYR and sorghum NADPH cytochorme P450 reductase in dilaurylpohsphatidylcholine micelles is performed as described in section 5.3. above.
# T2 sequence (Q43135 other isoform, or with tags, fused parts or gaps): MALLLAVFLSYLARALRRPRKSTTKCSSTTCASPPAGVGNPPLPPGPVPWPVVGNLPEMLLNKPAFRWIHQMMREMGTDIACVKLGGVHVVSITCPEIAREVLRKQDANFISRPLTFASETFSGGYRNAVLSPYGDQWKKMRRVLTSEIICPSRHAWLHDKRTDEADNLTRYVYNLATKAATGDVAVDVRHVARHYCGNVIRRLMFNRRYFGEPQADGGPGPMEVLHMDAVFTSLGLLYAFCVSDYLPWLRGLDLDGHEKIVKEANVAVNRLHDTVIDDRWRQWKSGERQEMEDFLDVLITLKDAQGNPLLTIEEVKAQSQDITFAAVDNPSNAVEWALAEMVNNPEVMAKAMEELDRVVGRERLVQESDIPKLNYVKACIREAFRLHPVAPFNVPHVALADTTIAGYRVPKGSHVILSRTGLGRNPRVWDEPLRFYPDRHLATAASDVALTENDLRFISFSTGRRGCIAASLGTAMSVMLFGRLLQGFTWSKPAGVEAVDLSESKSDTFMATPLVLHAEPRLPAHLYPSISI
# glucosinolate production = assay: Induction of glucosinolate production in Tropaeolum majus; type: in vivo; conditions: 10 mM phenylalanine or 2% ethanol administered to the vermiculate, 24 hours, etiolated seedlings
# Description: Seeds of Tropaeolum majus L. cv Empress of India (Dansk Havefroforsyning, Kolding, DK) are allowed to imbibe and germinate in complete darkness for one week at 25° C. In vivo biosynthesis experiments are performed wherein 1 μCi of the tracer ^14 C-labelled phenylalanine is administered to excised dark-grown seedlings for 24 hours followed by boiling of the plant material in 90% methanol and analysis of the extracts by HPLC as described by Lykkesfeldt and Moller, 1993. Prior to administration of the tracer to the excised seedling or leaf, the intact plant is subjected to a potential inducer for 24 hours.
# [3] = target: NADPH-cytochrome P-450 oxidoreductase, purified from Sorghum bicolor (Sorghum bicolor)
# [4] = target: T3, E. coli-expressed cytochrome P-450TYR (Sorghum bicolor, UniProt Q43135); assay: Reconstitution with E. coli-expressed cytochrome P-450TYR and sorghum NADPH cytochrome P450 reductase; type: biochemical; conditions: dilaurylphosphatidylcholine micelles
# T3 construct: in which the 35 N-terminal amino acids are replaced by the nine N-terminal amino acids from bovine 17α hydroxylase; nine N-terminal amino acids from bovine 17alpha-hydroxylase (replace the 35 N-terminal residues) (N); made in house; host or cells: E. coli JM109, vector pSP19g10L
# T3 sequence (Q43135 whole entry, looked up): B1 chain
# Description: as §1, §2
# [5] = target: NADPH-cytochrome P-450 oxidoreductase, purified from Sorghum bicolor (Sorghum bicolor); remark: listed apart in the source
# T1 sequence (Q43135 other isoform, or with tags, fused parts or gaps): as above
molecule,measurement,setting,value
"[C-]#[O+] [CO/O2, carbon monoxide]",% inhibition of oxime production,cytochrome P450; with light (450 nm),23%
same,% inhibition of oxime production,cytochrome P450; without light,65%
N[C@@H](Cc1ccccc1)C(=O)O [phenylalanine],type of substrate binding spectrum,[1],type Ispectrum
same,production of the corresponding oxime,[2],do not result in the production of the corresponding oxime
same,increase in glucosinolate production as compared to control experiments with water,glucosinolate production,threefold increase
"modified cytochrome P-450TYR in which the 35 N-terminal amino acids are replaced by the nine N-terminal amino acids from bovine 17α hydroxylase, expressed in E. coli (from UniProt P05185) (enzyme)",oxime production by the enzyme reconstituted in dilaurylphosphatidylcholine micelles (turnover rate) (nmol oxime per nmol P-450TYR per minute),[3],349
B1,Turnover rate,[4],349 nmol oxime per nmol P-450TYR per minute
B2,conversion of L-tyrosine to p-hydroxyphenyl-acetaldehyde oxime by the enzyme reconstituted in lipid micelles (turn-over number),[5],198 min⁻¹
